Source: patent US4407815A, “β-Lactam antibacterial compounds, their preparation and pharmaceutical compositions containing them” (Beecham Group Limited, priority 1980, dated 1983)

Tests used:
Test in all cases: Minimum Inhibitory Concentration, serial dilution on DST agar
Format in all cases: cell-based
[1] = test system: B. subtilis; conditions: DST agar + 10% horse blood, 0.001 ml of 10^-2 dilution (Gram-positive), 37° C., 18 h; for MIC: Bacillus subtilis
Protocol: (§1) ^a Determined by serial dilution on DST agar containing 10% horse
(§2) blood using an inoculum of 0.001 ml of a 10^-2 dilution for
(§3) Grampositive bacteria or a 10^-4 dilution for Gramnegative organisms.
(§4) MIC values were read after incubation at 37° C. for 18 h.

[2] = test system: E. coli; conditions: DST agar + 10% horse blood, 0.001 ml of 10^-4 dilution (Gram-negative), 37° C., 18 h; for MIC: Escherichia coli
Protocol: as §1, §2, §3, §4

[3] = test system: Klebsiella aerogenes; conditions: DST agar + 10% horse blood, 0.001 ml of 10^-4 dilution (Gram-negative), 37° C., 18 h
Protocol: as §1, §2, §3, §4

[4] = test system: Proteus mirabilis; conditions: DST agar + 10% horse blood, 0.001 ml of 10^-4 dilution (Gram-negative), 37° C., 18 h
Protocol: as §1, §2, §3, §4

[5] = test system: S. typhimurium; conditions: DST agar + 10% horse blood, 0.001 ml of 10^-4 dilution (Gram-negative), 37° C., 18 h; for MIC: Salmonella enterica
Protocol: as §1, §2, §3, §4

[6] = test system: Staph. aureus Oxford; conditions: DST agar + 10% horse blood, 0.001 ml of 10^-2 dilution (Gram-positive), 37° C., 18 h; for MIC: Staphylococcus aureus
Protocol: as §1, §2, §3, §4

[7] = test system: Strep. faecalis; conditions: DST agar + 10% horse blood, 0.001 ml of 10^-2 dilution (Gram-positive), 37° C., 18 h
Protocol: as §1, §2, §3, §4

[8] = test system: Strep. pneumoniae; conditions: DST agar + 10% horse blood, 0.001 ml of 10^-2 dilution (Gram-positive), 37° C., 18 h
Protocol: as §1, §2, §3, §4

[9] = test system: Staph. aureus Russell; conditions: lactamase-producing benzylpenicillin-resistant strain, DST agar + 10% horse blood, 0.001 ml of 10^-2 dilution (Gram-positive), 37° C., 18 h; for MIC: Staphylococcus aureus
Protocol: as §1, §2, §3, §4
^b Lactamase-producing benzylpenicillinresistant strain.

Structure (SMILES)	MIC [1]	MIC [2]	MIC [3]	MIC [4]	MIC [5]	MIC [6]	MIC ([7]; Enterococcus faecalis)	MIC ([8]; Streptococcus pneumoniae)	MIC [9]	Minimum Inhibitory Concentration [1]	Minimum Inhibitory Concentration [2]	Minimum Inhibitory Concentration [3]	Minimum Inhibitory Concentration [4]	Minimum Inhibitory Concentration [5]	Minimum Inhibitory Concentration [6]	Minimum Inhibitory Concentration [7]	Minimum Inhibitory Concentration [8]	Minimum Inhibitory Concentration [9]
N#CC1=C[C@@H]2[C@H](NC(=O)COc3ccccc3)C(=O)N2[C@H]1C(=O)O (relative stereo) [(57)]	2.5 µg/mL	> 50 µg/mL	> 50 µg/mL	> 50 µg/mL	> 50 µg/mL	5 µg/mL	> 50 µg/mL	1.2 µg/mL	50 µg/mL	–	–	–	–	–	–	–	–	–
COC(=O)C1=C[C@@H]2[C@H](NC(=O)COc3ccccc3)C(=O)N2[C@H]1C(=O)O (relative stereo) [(39), (2RS, 5RS, 6SR) Sodium 1-aza-3-methoxycarbonyl-6-phenoxyacetamido-bicyclo-[3.2.0]-hept-3-en-7-one-2-carboxylate]	1 µg/mL	> 100 µg/mL	> 100 µg/mL	> 100 µg/mL	> 100 µg/mL	2.5 µg/mL	–	–	> 100 µg/mL	–	–	–	–	–	–	–	–	–
COC(=O)C1=C[C@@H]2[C@H](NC(=O)[C@H](N)c3ccccc3)C(=O)N2[C@H]1C(=O)O.Cc1ccc(N)cc1 (racemic) [(48), (2RS, 5RS, 6SR) 1-Aza-3-methoxycarbonyl-6-D-α-phenylglycylamino-bicyclo-[3.2.0]-hept-3-en-7-one-2-carboxylic acid, p-toluidine salt]	–	–	–	–	–	–	–	–	–	1.2 µg/mL	50 µg/mL	50 µg/mL	25 µg/mL	12.5 µg/mL	12.5 µg/mL	12.5 µg/mL	0.5 µg/mL	> 50 µg/mL
COC(=O)C1=C[C@@H]2[C@H](NC(=O)C(C(=O)OCc3ccccc3)c3ccccc3)C(=O)N2[C@H]1C(=O)O.Cc1ccc(N)cc1 (mixture of isomers) [(54), (2RS, 5RS, 6SR) 1-Aza-6-(DL-α-benzyloxycarbonyl-phenylacetamido)-3-methoxycarbonylbicyclo [3.2.0]-hept-3-en-7-one-2-carboxylic acid, p-toluidine salt]	–	–	–	–	–	–	–	–	–	25 µg/mL	> 100 µg/mL	100 µg/mL	> 100 µg/mL	100 µg/mL	> 100 µg/mL	> 100 µg/mL	10 µg/mL	> 100 µg/mL
